Laboratory results reported in patent publication US20250059179A1, “Heterocyclic Compounds and Methods of Use” (AMGEN INC., priority 2021, published 2025).

What was measured:
[1] = target: His-tagged KRAS G12D protein (Homo sapiens, UniProt P01116, G12D); assay: KRAS G12D TR-FRET Assay; type: binding; settings: biotinylated KRPep-2d substrate, 10 μM GDP;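 also: europium anti-His antibody paired with streptavidin-d2 as FRET partners, initial 30 min incubation, then peptide 1 h and detection reagents 1 h, all at room temperature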
[2] = target: GDP-bound KRAS protein (aa 1-169), containing both G12D and C118A amino acid substitutions (Homo sapiens, UniProt P01116, C118A/G12D); assay: KRAS G12D Coupled Nucleotide Exchange Assay; type: biochemical; settings: 2 h compound pre-incubation; SOS-mediated nucleotide exchange, cRAF AlphaScreen readout;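 also: IC50 obtained by fitting the AlphaScreen signal with a four-parameter logistic curve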
[3] = system: Phosphorylation of ERK1/2 in A-427 cells; assay: Phospho-ERK1/2 MSD Assay; type: cell-based; settings: Homo sapiens, A-427, 2 h, 2 h compound treatment, read-out: pERK (A427 cells) IC50
How it was run: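 ERK1/2 phosphorylation measured by Meso Scale whole-cell lysate assay after A-427 cells were exposed to a titration of compound for 2 h at 37 °C.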

Chain of GDP-bound KRAS protein (aa 1-169), containing both G12D and C118A amino acid substitutions (P01116 1-169 isoform P01116-2 G12D/C118A): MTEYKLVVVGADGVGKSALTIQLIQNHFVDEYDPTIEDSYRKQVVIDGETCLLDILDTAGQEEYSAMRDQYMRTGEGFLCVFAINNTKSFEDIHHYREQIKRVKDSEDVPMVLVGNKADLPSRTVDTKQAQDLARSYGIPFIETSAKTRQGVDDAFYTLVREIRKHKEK
Chain of His-tagged KRAS G12D protein (P01116 1-188 isoform P01116-2 G12D): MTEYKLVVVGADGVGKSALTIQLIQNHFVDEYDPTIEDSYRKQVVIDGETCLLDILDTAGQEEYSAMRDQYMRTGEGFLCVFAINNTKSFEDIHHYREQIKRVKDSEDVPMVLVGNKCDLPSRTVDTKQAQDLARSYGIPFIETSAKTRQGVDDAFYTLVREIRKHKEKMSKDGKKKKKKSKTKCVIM

## N#Cc1c(OCC23CCCN2C[C@H](F)C3)nc2c(F)c(-c3ccc(F)c4sc(N)nc34)c(Cl)cc2c1N1[C@@H]2CC[C@H]1CNC2 (stereo partly drawn) [Example 159, 7-(2-amino-7-fluorobenzo[d]thiazol-4-yl)-4-((1R,5S)-3,8-diazabicyclo[3.2.1]octan-8-yl)-6-chloro-8-fluoro-2-(((2R)-2-fluorotetrahydro-1H-pyrrolizin-7a(5H)-yl)methoxy)quinoline-3-carbonitrile]
[1]
  IC50: 174 nM
[2]
  Avg 2 h Coupled Exchange IC50: 88 nM
[3]
  IC50: > 10000 nM

## Nc1nc2c(-c3c(Cl)cc4c(N5C[C@H]6CC[C@@H](C5)N6)cc(OC[C@@]56CCCN5C[C@H](F)C6)nc4c3F)ccc(F)c2s1 [Example 161, 4-(4-((1R,5S)-3,8-Diazabicyclo[3.2.1]octan-3-yl)-6-chloro-8-fluoro-2-(((2R,7aS)-2-fluorotetrahydro-1H-pyrrolizin-7a(5H)-yl)methoxy)quinolin-7-yl)-7-fluorobenzo[d]thiazol-2-amine]
[1]
  IC50: 57 nM
[2]
  Avg 2 h Coupled Exchange IC50: 24 nM
[3]
  IC50: 5790 nM
